Literature values, collected in patent US20090162442A1, “MULTI-PHASIC, NANO-STRUCTURED COMPOSITIONS CONTAINING A COMBINATION OF A FIBRATE AND A STATIN” (priority 2007, published 2009).

[1] = American Family Physician, 2002, Vol. 65, No. 6, page 1173

Compound	absorbed (rate of absorption) [1]	bioavailable [1]	bioavailability under fed conditions (food interaction)
CC(C)n1c(/C=C/C(O)CC(O)CC(=O)O)c(-c2ccc(F)cc2)c2ccccc21 (centres unmarked) [fluvastatin]	98%	approximately 24%	decrease
CC[C@H](C)C(=O)O[C@H]1C[C@@H](C)C=C2C=C[C@H](C)[C@H](CC[C@@H]3C[C@@H](O)CC(=O)O3)[C@H]21 [lovastatin]	about 30%		
CC[C@H](C)C(=O)O[C@H]1C[C@H](O)C=C2C=C[C@H](C)[C@H](CC[C@@H](O)C[C@@H](O)CC(=O)O)[C@H]21 [pravastatin]			decrease
